Results reported in PubChem BioAssay AID1963424 (Molecular Pharmacology Branch, DTP, NCI, 2024).

Test system: 327498-153-R-J2-PDC complex spheroid growth, % test/control
Assay: Anticancer human tumor 327498-153-R-J2-PDC patient-derived uterine carcinosarcoma cell line growth inhibition [Asc]
Conditions: for IC50: curve of first compound; for viability, T/C: stronger effect = lower value; active = viability on the fitted dose curve at most 10% of control; inactive = the rest
Procedure, shortened: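 Complex solid-tumor spheroids incorporating human endothelial and mesenchymal stem cells received single agents or combinations over half-log dilution ranges anchored to clinical Cmax.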

[1] = second compound 0.1 µM, first compound 0.0316 µM
[2] = second compound 0.1 µM, first compound 0.1 µM
[3] = second compound 0.1 µM, first compound 0.316 µM
[4] = second compound 0.1 µM, first compound 1 µM
[5] = second compound 0.316 µM, first compound 0.0316 µM
[6] = second compound 0.316 µM, first compound 0.1 µM
[7] = second compound 0.316 µM, first compound 0.316 µM
[8] = second compound 0.316 µM, first compound 1 µM
[9] = second compound 1 µM, first compound 0.0316 µM
[10] = second compound 1 µM, first compound 0.1 µM
[11] = second compound 1 µM, first compound 0.316 µM
[12] = second compound 1 µM, first compound 1 µM
[13] = second compound 3.16 µM, first compound 0.0316 µM
[14] = second compound 3.16 µM, first compound 0.1 µM
[15] = second compound 3.16 µM, first compound 0.316 µM
[16] = second compound 3.16 µM, first compound 1 µM
[17] = second compound 10 µM, first compound 0.0316 µM
[18] = second compound 10 µM, first compound 0.1 µM
[19] = second compound 10 µM, first compound 0.316 µM
[20] = second compound 10 µM, first compound 1 µM
[21] = second compound 0.1 µM, first compound 0.00316 µM
[22] = second compound 0.1 µM, first compound 0.01 µM
[23] = second compound 0.316 µM, first compound 0.00316 µM
[24] = second compound 0.316 µM, first compound 0.01 µM
[25] = second compound 1 µM, first compound 0.00316 µM
[26] = second compound 1 µM, first compound 0.01 µM
[27] = second compound 3.16 µM, first compound 0.00316 µM
[28] = second compound 3.16 µM, first compound 0.01 µM
[29] = second compound 10 µM, first compound 0.00316 µM
[30] = second compound 10 µM, first compound 0.01 µM
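Note: spheroids exposed to compound for 7 days after 3 days of growth.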
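Throughout, for viability, T/C: 100% = DMSO vehicle control wells.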

C=CC(=O)N1CCN(c2nc(=O)n(-c3c(C)ccnc3C(C)C)c3nc(-c4c(O)cccc4F)c(F)cc23)C(C)C1 (stereo not given) + Cc1c(S(C)(=O)=O)c(-c2cc(F)cc(N3CCN(c4ccc(NS(=O)(=O)c5ccc(NC(CCN6CCC(C(=O)OCCCP(=O)(O)O)CC6)CSc6ccccc6)c(S(=O)(=O)C(F)(F)F)c5)cc4)CC3)c2)c(-c2ccc(Cl)cc2)n1C(C)C
> 10000 nM: IC50 (second compound 0.1 µM) | IC50 (second compound 0.316 µM) | IC50 (second compound 1 µM) | IC50 (second compound 3.16 µM) | IC50 (second compound 10 µM)
inactive: viability, T/C [1] 78.9% | viability, T/C [2] 68.5% | viability, T/C [3] 66.7% | viability, T/C [4] 69.5% | viability, T/C (second compound 0.1 µM, first compound 3.16 µM) 63.4% | viability, T/C (second compound 0.1 µM, first compound 10 µM) 64.8% | viability, T/C [5] 73.5% | viability, T/C [6] 71.6% | viability, T/C [7] 62.4% | viability, T/C [8] 63.2% | viability, T/C (second compound 0.316 µM, first compound 3.16 µM) 60.2% | viability, T/C (second compound 0.316 µM, first compound 10 µM) 56.4% | viability, T/C [9] 83.2% | viability, T/C [10] 71.9% | viability, T/C [11] 60.7% | viability, T/C [12] 71.2% | viability, T/C (second compound 1 µM, first compound 3.16 µM) 62.1% | viability, T/C (second compound 1 µM, first compound 10 µM) 64.7% | viability, T/C [13] 84.6% | viability, T/C [14] 72.4% | viability, T/C [15] 62.4% | viability, T/C [16] 67.4% | viability, T/C (second compound 3.16 µM, first compound 3.16 µM) 65.4% | viability, T/C (second compound 3.16 µM, first compound 10 µM) 48.3% | viability, T/C [17] 179% | viability, T/C [18] 164% | viability, T/C [19] 164% | viability, T/C [20] 136% | viability, T/C (second compound 10 µM, first compound 3.16 µM) 167% | viability, T/C (second compound 10 µM, first compound 10 µM) 151%

COc1c(OCCCN2CCOCC2)ccc2c3n(c(=NC(=O)c4cnc(N)nc4)nc12)CCN3 + Cc1c(S(C)(=O)=O)c(-c2cc(F)cc(N3CCN(c4ccc(NS(=O)(=O)c5ccc(NC(CCN6CCC(C(=O)OCCCP(=O)(O)O)CC6)CSc6ccccc6)c(S(=O)(=O)C(F)(F)F)c5)cc4)CC3)c2)c(-c2ccc(Cl)cc2)n1C(C)C
86.4 nM: IC50 (second compound 3.16 µM)
active: viability, T/C [4] 5.06% | viability, T/C [8] 4.02% | viability, T/C [12] 3.26% | viability, T/C [16] 2.71% | viability, T/C [20] 4.08%
104 nM: IC50 (second compound 0.1 µM)
96.5 nM: IC50 (second compound 0.316 µM)
79.2 nM: IC50 (second compound 1 µM)
inactive: viability, T/C [21] 81.3% | viability, T/C [22] 91.2% | viability, T/C [1] 80.3% | viability, T/C [2] 46.8% | viability, T/C [3] 24.6% | viability, T/C [23] 91.3% | viability, T/C [24] 84.4% | viability, T/C [5] 77.2% | viability, T/C [6] 48.7% | viability, T/C [7] 18.9% | viability, T/C [25] 91.1% | viability, T/C [26] 83.6% | viability, T/C [9] 63.9% | viability, T/C [10] 48.7% | viability, T/C [11] 20.8% | viability, T/C [27] 91.5% | viability, T/C [28] 79.2% | viability, T/C [13] 72.2% | viability, T/C [14] 48.9% | viability, T/C [15] 16.1% | viability, T/C [29] 166% | viability, T/C [30] 169% | viability, T/C [17] 151% | viability, T/C [18] 73% | viability, T/C [19] 24%
168 nM: IC50 (second compound 10 µM)

NC(=O)C(=Cn1cnc(-c2cc(C(F)(F)F)cc(C(F)(F)F)c2)n1)c1cncnc1 + Cc1c(S(C)(=O)=O)c(-c2cc(F)cc(N3CCN(c4ccc(NS(=O)(=O)c5ccc(NC(CCN6CCC(C(=O)OCCCP(=O)(O)O)CC6)CSc6ccccc6)c(S(=O)(=O)C(F)(F)F)c5)cc4)CC3)c2)c(-c2ccc(Cl)cc2)n1C(C)C
30.5 nM: IC50 (second compound 3.16 µM)
inactive: viability, T/C (second compound 0.1 µM, first compound 0.000949 µM) 88.6% | viability, T/C (second compound 0.1 µM, first compound 0.003 µM) 91.2% | viability, T/C (second compound 0.1 µM, first compound 0.00949 µM) 84.6% | viability, T/C (second compound 0.1 µM, first compound 0.03 µM) 58.4% | viability, T/C (second compound 0.1 µM, first compound 0.0949 µM) 9.68% | viability, T/C (second compound 0.316 µM, first compound 0.000949 µM) 98.2% | viability, T/C (second compound 0.316 µM, first compound 0.003 µM) 93.3% | viability, T/C (second compound 0.316 µM, first compound 0.00949 µM) 86.8% | viability, T/C (second compound 0.316 µM, first compound 0.03 µM) 64.3% | viability, T/C (second compound 1 µM, first compound 0.000949 µM) 99.7% | viability, T/C (second compound 1 µM, first compound 0.003 µM) 94.6% | viability, T/C (second compound 1 µM, first compound 0.00949 µM) 87.1% | viability, T/C (second compound 1 µM, first compound 0.03 µM) 53.1% | viability, T/C (second compound 3.16 µM, first compound 0.000949 µM) 95.8% | viability, T/C (second compound 3.16 µM, first compound 0.003 µM) 90.7% | viability, T/C (second compound 3.16 µM, first compound 0.00949 µM) 93.4% | viability, T/C (second compound 3.16 µM, first compound 0.03 µM) 50.5% | viability, T/C (second compound 10 µM, first compound 0.000949 µM) 168% | viability, T/C (second compound 10 µM, first compound 0.003 µM) 168% | viability, T/C (second compound 10 µM, first compound 0.00949 µM) 168% | viability, T/C (second compound 10 µM, first compound 0.03 µM) 78.8%
46.6 nM: IC50 (second compound 10 µM)
active: viability, T/C (second compound 0.1 µM, first compound 0.3 µM) 0.77% | viability, T/C (second compound 0.316 µM, first compound 0.0949 µM) 4.86% | viability, T/C (second compound 0.316 µM, first compound 0.3 µM) 0.51% | viability, T/C (second compound 1 µM, first compound 0.0949 µM) 3.7% | viability, T/C (second compound 1 µM, first compound 0.3 µM) 1.44% | viability, T/C (second compound 3.16 µM, first compound 0.0949 µM) 4.58% | viability, T/C (second compound 3.16 µM, first compound 0.3 µM) 0.43% | viability, T/C (second compound 10 µM, first compound 0.0949 µM) 4.73% | viability, T/C (second compound 10 µM, first compound 0.3 µM) 0.54%
31.2 nM: IC50 (second compound 1 µM)
39.4 nM: IC50 (second compound 0.316 µM)
36.4 nM: IC50 (second compound 0.1 µM)

NC1CCC(NC2CC2c2ccccc2)CC1 (stereo not given) + Cc1c(S(C)(=O)=O)c(-c2cc(F)cc(N3CCN(c4ccc(NS(=O)(=O)c5ccc(NC(CCN6CCC(C(=O)OCCCP(=O)(O)O)CC6)CSc6ccccc6)c(S(=O)(=O)C(F)(F)F)c5)cc4)CC3)c2)c(-c2ccc(Cl)cc2)n1C(C)C
> 100 nM: IC50 (second compound 0.1 µM) | IC50 (second compound 0.316 µM) | IC50 (second compound 1 µM) | IC50 (second compound 3.16 µM) | IC50 (second compound 10 µM)
inactive: viability, T/C (second compound 0.1 µM, first compound 0.000316 µM) 98.9% | viability, T/C (second compound 0.1 µM, first compound 0.001 µM) 109% | viability, T/C [21] 104% | viability, T/C [22] 95.6% | viability, T/C [1] 100% | viability, T/C [2] 98% | viability, T/C (second compound 0.316 µM, first compound 0.000316 µM) 89.6% | viability, T/C (second compound 0.316 µM, first compound 0.001 µM) 99.5% | viability, T/C [23] 95% | viability, T/C [24] 88.3% | viability, T/C [5] 93.8% | viability, T/C [6] 95.5% | viability, T/C (second compound 1 µM, first compound 0.000316 µM) 94.2% | viability, T/C (second compound 1 µM, first compound 0.001 µM) 96.6% | viability, T/C [25] 90.4% | viability, T/C [26] 91.5% | viability, T/C [9] 96.8% | viability, T/C [10] 90.6% | viability, T/C (second compound 3.16 µM, first compound 0.000316 µM) 98.9% | viability, T/C (second compound 3.16 µM, first compound 0.001 µM) 91.4% | viability, T/C [27] 92.6% | viability, T/C [28] 86.3% | viability, T/C [13] 96.8% | viability, T/C [14] 90.1% | viability, T/C (second compound 10 µM, first compound 0.000316 µM) 177% | viability, T/C (second compound 10 µM, first compound 0.001 µM) 173% | viability, T/C [29] 160% | viability, T/C [30] 158% | viability, T/C [17] 168% | viability, T/C [18] 181%
